One block for each compound: values may come before it.
How the values were obtained:
BGL [1] = target: T1, BGL (Thermoanaerobacterium thermosaccharolyticum, UniProt D9TR57); assay: initial rates, cellobiose hydrolysis; assay type: biochemical; conditions: 50 mM citrate pH 6.0, 65°C
T1 construct: gene Tthe_1813
T1 sequence (D9TR57 1-444): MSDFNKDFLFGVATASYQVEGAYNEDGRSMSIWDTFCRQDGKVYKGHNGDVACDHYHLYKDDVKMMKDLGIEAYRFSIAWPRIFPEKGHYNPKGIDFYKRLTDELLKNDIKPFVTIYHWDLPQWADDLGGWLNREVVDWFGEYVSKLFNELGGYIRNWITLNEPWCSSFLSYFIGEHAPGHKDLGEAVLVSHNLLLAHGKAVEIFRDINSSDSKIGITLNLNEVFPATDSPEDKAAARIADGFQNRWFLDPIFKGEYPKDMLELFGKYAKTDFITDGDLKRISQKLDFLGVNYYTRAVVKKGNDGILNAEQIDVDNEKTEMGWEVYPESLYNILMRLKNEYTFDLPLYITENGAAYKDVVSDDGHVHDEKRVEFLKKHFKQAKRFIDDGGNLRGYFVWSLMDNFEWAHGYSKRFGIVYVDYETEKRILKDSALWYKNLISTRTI

BGL-CBD [2] = test system: T2, BGL-CBD; assay: initial rates, cellobiose hydrolysis; assay type: biochemical, Thermoanaerobacterium thermosaccharolyticum; conditions: 50 mM citrate pH 6.0, 65°C
T2 construct: one polypeptide: BGL - PPP linker - C. cellulovorans CBD, pET-20b (NdeI/BamHI/XhoI; pET-BGL-Linker-CBD), Ni-NTA purified, E. coli JM109(DE3), about 69 kDa
Text: initial rates, cellobiose hydrolysis on BGL-CBD

BGL [3] = target: T1, BGL; assay: pNP release at […] nm, […] inhibition; assay type: biochemical; conditions: pNPG as substrate, 50 mM citrate pH 6.0, 65°C; K i defined as glucose giving 50% inhibition
BGL [4] = target: T1, BGL; assay: initial rates, pNP release at […] nm; assay type: biochemical; conditions: 50 mM citrate pH 6.0, 65°C
BGL-CBD [5] = test system: T2, BGL-CBD; assay: initial rates, pNP release at […] nm; assay type: biochemical, Thermoanaerobacterium thermosaccharolyticum; conditions: 50 mM citrate pH 6.0, 65°C

- Km (BGL [1]): 7900 µM
- Km (BGL-CBD [2]): 2620 µM
Compound: OC[C@H]1O[C@@H](O[C@H]2[C@H](O)[C@@H](O)C(O)O[C@@H]2CO)[C@H](O)[C@@H](O)[C@@H]1O (some centres unmarked) [cellobiose]

Compound: OC[C@H]1OC(O)[C@H](O)[C@@H](O)[C@@H]1O (some centres unmarked) [glucose]
- K i (BGL [3]): The BGL-CBD yielded approximately two times higher K i values for glucose than the BGL

- Km (BGL [4]): 620 µM
- Km (BGL-CBD [5]): 250 µM
Compound: O=[N+]([O-])c1ccc(O[C@@H]2O[C@H](CO)[C@@H](O)[C@H](O)[C@H]2O)cc1 [p-nitrophenyl-β-D-glucopyranoside]
